The record followed here is PubChem BioAssay (NCI).

Some test systems named below: XF 498 CNS; SK-MEL-5 melanoma; RPMI-8226 leukemia; SNB-78 CNS; DMS 273 small cell lung; DMS 114 small cell lung; M19-MEL melanoma; DLD-1 colon; LXFL 529 NSCLC; KM20L2 colon; P388 leukemia; HOP-18 NSCLC; SN12K1 renal; P388/ADR leukemia; RXF-631 renal.
Common to all, as to assay: NCI tumour cell line growth inhibition, 48 h

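Tested at 5 concentrations; 48 h exposure; 96-well plates; endpoints linearly interpolated, else capped at highest concentration. At the GI50, growth is halved. TGI is the concentration that stops growth completely.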

Consider `CON(C)C(=O)C(Cc1ccccc1)NC(=O)OCc1ccccc1` (stereo not given), for which the TGI with XF 498 CNS, in the experiment with SK-MEL-5 melanoma, in the experiment on RPMI-8226 leukemia, in the experiment with SNB-78 CNS, in the experiment on DMS 273 small cell lung and in the experiment with DMS 114 small cell lung was over 100 µM in each case. The TGI with M19-MEL melanoma, in the experiment on DLD-1 colon, with LXFL 529 NSCLC and with KM20L2 colon was over 100 µM each time.
On to `Cc1ccc(C(=O)OC(C(=O)O)C(OC(=O)c2ccc(C)cc2)C(=O)O)cc1` (stereo not given) (tested in a mixture with another compound), for which the TGI was determined as 7.53 µM with P388 leukemia; 10.2 µM with XF 498 CNS; 4.39 µM in the experiment with HOP-18 NSCLC; 8.41 µM with SN12K1 renal; 7.72 µM in the experiment with SK-MEL-5 melanoma; 9.23 µM in the experiment with RPMI-8226 leukemia. For the same compound, the TGI was 33.8 µM in the experiment on SNB-78 CNS; 10.7 µM in the experiment with DMS 273 small cell lung; 11.7 µM in the experiment with P388/ADR leukemia; 12.9 µM in the experiment with DMS 114 small cell lung; 15.1 µM with M19-MEL melanoma; 21.3 µM in the experiment with DLD-1 colon. Moreover, in the experiment with KM20L2 colon, the TGI came out at 13 µM.
Take `O=c1cc(-c2ccc3c(c2)OCO3)[nH]c2cc3c(cc12)OCO3`: the TGI with XF 498 CNS, with HOP-18 NSCLC, in the experiment with SK-MEL-5 melanoma, in the experiment with RPMI-8226 leukemia, with SNB-78 CNS and with DMS 273 small cell lung was over 100 µM in each case. In addition, the TGI in the experiment on DMS 114 small cell lung is 96.1 µM; in the experiment with M19-MEL melanoma, 78.2 µM; in the experiment with DLD-1 colon it was over 100 µM; with LXFL 529 NSCLC, over 100 µM; in the experiment on KM20L2 colon, 74.5 µM. Moreover, the GI50 is 25.4 µM in the experiment with SK-MEL-5 melanoma, 24 µM in the experiment with DMS 114 small cell lung and 26.6 µM in the experiment on KM20L2 colon.
Regarding `CC1NC(=O)C(C)C(c2ccccc2)N(N=O)C1c1ccccc1` (stereo not given), the TGI was over 89.2 µM with P388 leukemia; over 100 µM in the experiment on XF 498 CNS; over 100 µM in the experiment with HOP-18 NSCLC; over 100 µM in the experiment on SN12K1 renal; over 100 µM with SK-MEL-5 melanoma; over 100 µM with RPMI-8226 leukemia. The TGI with SNB-78 CNS, in the experiment with DMS 273 small cell lung, in the experiment with P388/ADR leukemia, in the experiment with DMS 114 small cell lung, in the experiment on DLD-1 colon and with KM20L2 colon was over 100 µM each time.
On to `O=C(CC1Sc2ccccc2NC1=O)Nc1ccccc1[N+](=O)[O-]` (stereo not given), for which the TGI in the experiment with RXF-631 renal, in the experiment on XF 498 CNS, in the experiment on HOP-18 NSCLC, in the experiment with SK-MEL-5 melanoma, with RPMI-8226 leukemia and in the experiment with SNB-78 CNS was over 100 µM each time. For the same compound, the TGI in the experiment with DMS 273 small cell lung, with M19-MEL melanoma, with DLD-1 colon, in the experiment on LXFL 529 NSCLC and in the experiment on KM20L2 colon was over 100 µM in each case.
